Reference: PubChem BioAssay (NCI)
“And” between values parts separate entries of the source, which are not always exact repeats. Equal entries are not always repeated.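 1) Cells in 96-well plates. 2) Compound, 48 h, 5 concentrations. 3) Linear interpolation between surrounding doses. 4) Unreached endpoint = highest concentration. Abbreviation: GI50, concentration required for 50% inhibition of growth. TGI denotes the concentration required for complete inhibition of growth.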

How the values were obtained:
Experiment in all cases: NCI anticancer screen, dose series, 48 h
A549 NSCLC = test system: A549 NSCLC
MDA-MB-231 breast = test system: MDA-MB-231 breast
NCI-H23 lung = test system: NCI-H23 lung
NCI-H522 lung = test system: NCI-H522 lung
OVCAR-8 ovarian = test system: OVCAR-8 ovarian
SF-268 CNS = test system: SF-268 CNS
SK-MEL-2 melanoma = test system: SK-MEL-2 melanoma
SR leukemia = test system: SR leukemia
HL-60(TB) leukemia = test system: HL-60(TB) leukemia
MDA-N = test system: MDA-N

SMILES	GI50 (A549 NSCLC) [µM]	TGI (A549 NSCLC) [µM]	GI50 (MDA-MB-231 breast)	TGI (MDA-MB-231 breast)	GI50 (NCI-H23 lung) [µM]	TGI (NCI-H23 lung) [µM]	GI50 (NCI-H522 lung) [µM]	TGI (NCI-H522 lung) [µM]	GI50 (OVCAR-8 ovarian) [µM]	TGI (OVCAR-8 ovarian) [µM]	GI50 (SF-268 CNS) [µM]	TGI (SF-268 CNS) [µM]	GI50 (SK-MEL-2 melanoma) [µM]	TGI (SK-MEL-2 melanoma) [µM]	GI50 (SR leukemia) [µM]	TGI (SR leukemia) [µM]	TGI (HL-60(TB) leukemia) [µM]	TGI (MDA-N) [µM]
CC1(C)[C@@H](OC(N)=O)C=C[C@]2(CO)[C@H]3CC[C@]4(C)[C@@H](c5ccc(=O)oc5)[C@@H](Cl)C[C@]4(O)C3=CC[C@@H]12	< 0.0001	0.00192	0.017 µM and 0.0025 µM	0.0588 µM and 0.159 µM	< 0.0001	0.0113	< 0.0001	0.00305	0.0028	0.0151	< 0.0001	0.00254	0.00402	0.0294	0.00232	0.0146		
CC(=O)NC(=O)NC1=NCCC(=O)N1CCc1c[nH]c2ccccc12		> 100		> 100 µM		> 100		> 100		> 100		> 100		> 100			> 100	> 100
CC1CN=C(c2ccc(CN3CCC(C4CCN(Cc5ccc(C6=NCC(C)N6)cc5)CC4)CC3)cc2)N1 (stereo unspecified)		46		36.3 µM		84.7		33.7		> 100		53.7		36			> 100	47.3
C=CCc1ccccc1C1CC2(C(=O)OC)OC1C(C(=O)OC)=C2C(=O)OC (stereo unspecified)		> 10		> 10 µM		> 10				> 10		> 10		> 10		> 10	> 10	> 10
COc1cc2c(cc1OC)C(=O)/C(=C/c1ccc(O)cc1)CC2		> 10		> 10 µM		> 10				> 10		> 10		> 10		> 10	> 10	> 10
O=c1[nH]c2cc([N+](=O)[O-])c(Nc3c4ccccc4nc4ccccc34)c([N+](=O)[O-])c2[nH]1		12.3		17.5 µM		16		3.63		16.3		10.5		8.6		4.36	9.39	
CCN1CCCn2c(=O)[nH]c3cc(Br)cc1c32		> 100		> 100 µM		> 100				> 100		> 100		> 100		> 100	> 100	> 100
COc1cccc(C23CCCC(C2)N(C)CC3OC(=O)c2ccccc2)c1OC (stereo unspecified)		> 100				44.6		67.6		38.7		> 100		> 100		40.9	28.3	37.7
Cc1cn(CCOCCOC(=O)NC(CCCNC(N)=O)C(=O)O)c(=O)[nH]c1=O (stereo unspecified)		> 100		> 100 µM		> 100				> 100		> 100		> 100		> 100	> 100	> 100
O=C(NCCCCCCO)c1cccc2cc3ccccc3nc12		31.5		40 µM				28.8		> 100				30.1			74.8	12.9
O=c1c(O)cccn1C1OC(CO)C(O)C1O (stereo unspecified)		> 100				> 100		> 100		> 100		> 100		> 100				
